pIC50, pKi: −log10 of the molar value. Counter-ions that a name gives are not always drawn. Like-named read-outs stand apart in the source and are kept apart here.
Tests used:
[1] = molecular target: T1, cloned human μ opioid receptor (Homo sapiens, UniProt P35372); assay: [3H]diprenorphine binding to cloned human μ opioid receptor
T1 construct: expressed in transfected cells
Experimental: (§1) IC50 values were obtained by nonlinear analysis of the data using GraphPad Prism version 3.00 for Windows (GraphPad Software, San Diego). Ki values were obtained by Cheng-Prusoff corrections of IC50 values.
(§2) After dilution in buffer A and homogenization as before, membrane proteins (10-80 μg) in 250 μL were added to mixtures containing test compound and [^3H]diprenorphine (0.5 to 1.0 nM, 40,000 to 50,000 dpm) in 250 μL of buffer A in 96-well deep-well polystyrene titer plates (Beckman). After incubation at room temperature for one hour, the samples were filtered through GF/B filters that had been presoaked in a solution of 0.5% (w/v) polyethylenimine and 0.1% (w/v) bovine serum albumin in water. The filters were rinsed 4 times with 1 mL of cold 50 mM Tris HCl, pH 7.8 and radioactivity remaining on the filters determined by scintillation spectroscopy. Nonspecific binding was determined by the minimum values of the titration curves and was confirmed by separate assay wells containing 10 μM naloxone.
(§3) To determine the equilibrium dissociation constant for the inhibitors (Ki), radioligand bound (cpm) in the presence of various concentrations of test compounds was measured. […] The nonlinear regression fit was performed using the program Prism® (GraphPad Software, San Diego, Calif.). The Ki values were then determined from the […] values by the following equation, [formula] • where [ligand] is the concentration of radioligand; and • Kd is the equilibrium dissociation constant for the radioligand.

[2] = molecular target: T2, cloned human δ opioid receptor (Homo sapiens, UniProt P41143); assay: [3H]diprenorphine binding to cloned human δ opioid receptor
T2 construct: expressed in transfected cells
Experimental: as §1, §2, §3

[3] = molecular target: T3, CYP2D6 (Homo sapiens, UniProt P10635); assay: Inhibition of CYP2D6 catalyzed conversion of MAMC to HAMC; assay type: in vitro ADME
T3 construct: purchased BD Biosciences
Experimental: Inhibition of CYP2D6 Catalyzed Conversion of MAMC to HAMC
Microsomes containing baculovirus expressed human recombinant CYP2D6 and MAMC were purchased from BD Biosciences. The method is a modification of the method provided by BD Biosciences.
• Assay Buffer=50 mM KPO4, 15 μg/mL NADP^+, 0.30 mg/mL glucose-6-phosphate, 0.20 mg/mL MgCl2, 0.96 U/mL glucose-6-phosphate dehydrogenase, 2.5 μM MAMC, pH 7.4. • Dilution Buffer=50 mM KPO4, pH 7.4 • Enzyme Buffer=150 mM KPO4, pH 7.4 • Stop Solution=80% acetonitrile, 20% 0.5 M Tris Base Procedure:
The assays were done in black 96 well plates (VWR Cat# 22221-572) and contained: 40 μL assay buffer, 10 μL test compound in dilution buffer and 50 μL of 10-15 pmol/mL CYP2D6 in enzyme buffer. Final concentrations: (100 mM KPO4, pH 7.4, 7.9 μM NADP^+, 0.36 mM glucose-6-phosphate, 0.4 mM MgCl2, 0.38 U/mL glucose-6-phosphate dehydrogenase, 1 μM MAMC (BD Biosciences), 0.5 pmol CYP2D6 (BD Biosciences))
For large experiments, assay buffer and test compound were added using the MiniTrak IV (Packard Biosciences), otherwise they were added using 25-250 μL and 5-100 μL 8 channel electronic pipettors (BioHit). CYP2D6 was added using 25-250 μL 8 channel electronic pipettor.
Titrations are done in either 96 well deep-well plates (Beckman) or 96 well microtiter plates (Costar), an initial dilution in dilution buffer is prepared from stock solutions in DMSO to start either 8 (1:6) or 12 (1:3.15) serial dilutions. For 1:6 dilutions, 50 μL for each dilution is transferred to 250 μL dilution buffer. For 1:3.15 dilutions, 50 μL for each dilution is transferred to 108 μL dilution buffer. Further details on concentrations will be provided in each experiment. Titrations are done using either 25-250 μL 8 channel electronic pipettor, 30-300 μL 12 channel manual pipettor (Spectrum), or the Multiprobe II. For screening, dilution plates are prepared in dilution buffer in 96 well microtiter plates from masterplates in 100% DMSO using the Multiprobe II or MiniTrak IV. After assay buffer and test compound has been added, the plates and the enzyme buffer are prewarmed at 37° C. for 15 minutes. After prewarming, CYP2D6 is added to then enzyme buffer and then added to the assay plate using 25-250 μL 8 channel electronic pipettor and the plates are incubated for 15 minutes at 37° C. After incubation, 50 μL stop solution is added using 25-250 μL 8 channel electronic pipettor. The plates are then counted on the Fusion (Packard Biosciences) for 4 sec/well using and excitation filter of 390 nm and an emission filter of 460 nm, intensity setting of 1, high detector sensitivity.
Non-specific relative fluorescent units (RFU) are determined in the presence of 10 μM quinidine in wells A1, B1, and C1 of each plate and total RFU determined in wells D1, E1, F1 in the absence of test compound. Specific HAMC production is the difference between total and nonspecific. For each compound, a percent inhibition of HAMC production is calculated by: % I=(1−(A/B))*100 • where A=cpm specifically bound for test compound • B=cpm specifically bound in the absence of test compound For experiments where the plates are registered in the biological database, % I is determined automatically by the biological database. Titrations
IC50's are calculated using nonlinear regression to a one-site model using GraphPad Prism or a VB algorithm fitting the data to that equation.

[4] = molecular target: CYP2C9 (Homo sapiens, UniProt P11712); assay: Inhibition of CYP2C9 conversion of dibenzylfluorescein to fluorescein; assay type: in vitro ADME
Experimental: (§4) Inhibition of CYP2C9 and CYP3A4
(§5) These assays were carried out as described using CYP2C9 and CYP3A4 conversion of dibenzylfluorescein (DBF) to fluorescein (F).

[5] = molecular target: CYP3A4 (Homo sapiens, UniProt P08684); assay: Inhibition of CYP3A4 conversion of dibenzylfluorescein to fluorescein; assay type: in vitro ADME
Experimental: as §4, §5

[6] = system: cytochrome P450 enzymes (CYP2D6, CYP3A4, CYP2C9); assay: Overall evaluation of inhibition of major drug metabolizing hepatic cytochrome P450 enzymes; assay type: in vitro ADME, human
[7] = inhibition of [3H]diprenorphine binding, cloned human μ receptor, read-out: Ki(μ)
[8] = inhibition of [3H]diprenorphine binding, cloned human δ receptor, read-out: Ki(δ)
[9] = MAMC to HAMC conversion, read-out: IC50(CYP2D6)
[10] = DBF to fluorescein conversion, read-out: IC50(CYP2C9)
[11] = DBF to fluorescein conversion, read-out: IC50(CYP3A4)

T1 sequence (P35372 whole entry): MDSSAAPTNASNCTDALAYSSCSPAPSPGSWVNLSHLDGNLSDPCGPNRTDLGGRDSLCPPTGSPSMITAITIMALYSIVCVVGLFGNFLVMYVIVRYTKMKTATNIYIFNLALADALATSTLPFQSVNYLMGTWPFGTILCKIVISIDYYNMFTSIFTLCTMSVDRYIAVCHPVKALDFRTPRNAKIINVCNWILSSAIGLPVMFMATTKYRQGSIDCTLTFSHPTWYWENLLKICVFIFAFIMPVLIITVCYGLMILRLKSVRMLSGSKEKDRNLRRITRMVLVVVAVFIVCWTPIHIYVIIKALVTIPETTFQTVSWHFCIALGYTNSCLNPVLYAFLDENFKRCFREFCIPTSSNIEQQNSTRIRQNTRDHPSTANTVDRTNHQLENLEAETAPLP
Chain of CYP2C9 (P11712 whole entry): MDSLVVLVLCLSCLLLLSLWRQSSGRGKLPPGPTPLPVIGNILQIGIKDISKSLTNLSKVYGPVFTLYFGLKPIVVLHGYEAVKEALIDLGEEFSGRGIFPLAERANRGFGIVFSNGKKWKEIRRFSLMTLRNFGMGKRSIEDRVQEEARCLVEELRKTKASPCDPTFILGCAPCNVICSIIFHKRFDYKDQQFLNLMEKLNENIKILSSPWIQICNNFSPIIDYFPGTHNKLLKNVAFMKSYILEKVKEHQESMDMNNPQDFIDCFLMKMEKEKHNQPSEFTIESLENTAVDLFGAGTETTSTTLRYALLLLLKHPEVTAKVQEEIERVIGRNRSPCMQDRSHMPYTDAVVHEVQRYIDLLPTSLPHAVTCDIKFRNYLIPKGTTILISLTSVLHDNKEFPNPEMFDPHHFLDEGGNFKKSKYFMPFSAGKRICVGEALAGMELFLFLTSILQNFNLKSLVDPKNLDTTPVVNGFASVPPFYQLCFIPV
T2 sequence (P41143 whole entry): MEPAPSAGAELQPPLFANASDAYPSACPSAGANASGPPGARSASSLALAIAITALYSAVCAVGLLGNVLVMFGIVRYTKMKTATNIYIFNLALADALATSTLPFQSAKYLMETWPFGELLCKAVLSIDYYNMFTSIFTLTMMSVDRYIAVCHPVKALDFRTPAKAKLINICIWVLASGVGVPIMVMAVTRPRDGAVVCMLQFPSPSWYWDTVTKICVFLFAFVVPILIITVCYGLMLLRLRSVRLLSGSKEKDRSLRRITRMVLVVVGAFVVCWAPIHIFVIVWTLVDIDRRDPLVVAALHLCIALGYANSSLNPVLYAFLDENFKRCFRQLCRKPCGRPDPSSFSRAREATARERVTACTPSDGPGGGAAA
T3 sequence (P10635 whole entry): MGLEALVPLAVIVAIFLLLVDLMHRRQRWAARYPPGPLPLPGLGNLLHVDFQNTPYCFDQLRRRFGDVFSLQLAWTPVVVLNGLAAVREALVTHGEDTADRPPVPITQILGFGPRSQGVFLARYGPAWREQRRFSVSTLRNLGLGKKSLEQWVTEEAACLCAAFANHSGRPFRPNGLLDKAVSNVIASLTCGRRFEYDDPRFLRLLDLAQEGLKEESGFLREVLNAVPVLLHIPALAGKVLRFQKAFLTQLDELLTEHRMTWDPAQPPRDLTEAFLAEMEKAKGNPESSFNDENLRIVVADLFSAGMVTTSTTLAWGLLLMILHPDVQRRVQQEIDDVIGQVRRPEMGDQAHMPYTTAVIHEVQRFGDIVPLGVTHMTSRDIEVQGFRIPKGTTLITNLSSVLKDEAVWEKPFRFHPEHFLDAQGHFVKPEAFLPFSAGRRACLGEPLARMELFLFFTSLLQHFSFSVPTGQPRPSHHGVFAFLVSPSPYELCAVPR
Chain of CYP3A4 (P08684 whole entry): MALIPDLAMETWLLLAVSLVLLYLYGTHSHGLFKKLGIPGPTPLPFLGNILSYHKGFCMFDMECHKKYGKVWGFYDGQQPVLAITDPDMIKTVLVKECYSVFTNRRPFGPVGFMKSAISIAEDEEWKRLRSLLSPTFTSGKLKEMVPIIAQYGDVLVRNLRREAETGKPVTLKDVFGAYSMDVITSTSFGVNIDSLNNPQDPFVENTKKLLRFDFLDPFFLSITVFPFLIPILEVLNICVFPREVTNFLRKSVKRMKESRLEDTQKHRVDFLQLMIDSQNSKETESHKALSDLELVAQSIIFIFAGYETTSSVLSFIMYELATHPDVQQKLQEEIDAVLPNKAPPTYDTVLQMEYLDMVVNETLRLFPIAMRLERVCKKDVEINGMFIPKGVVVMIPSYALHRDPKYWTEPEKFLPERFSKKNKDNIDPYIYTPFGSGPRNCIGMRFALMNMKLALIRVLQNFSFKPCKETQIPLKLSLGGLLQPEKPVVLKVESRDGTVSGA

For `CN(C(=O)Cc1ccc(CNS(=O)(=O)c2ccccc2)cc1)[C@H](CN1CC[C@H](O)C1)c1ccccc1` [Example 18, 2-[4-(benzenesulfonylamino-methyl)-phenyl]-N-{2-[3-(S)-hydroxy-pyrrolidin-1-yl]-1-(S)-phenyl-ethyl}-N-methyl-acetamide hydrochloride], the pKi [1, 7] was 6.06, the pKi [2, 8] was 7.08 and the pIC50 [3, 9] was 5.47. It also gave a pIC50 [4, 10] of 5.10 and a pIC50 [5, 11] of 5.37.

`CN(C(=O)Cc1ccc(CNS(C)(=O)=O)cc1)[C@H](CN1CC[C@H](O)C1)c1ccccc1` [Example 13, N-{2-[3-(S)-hydroxy-pyrrolidin-1-yl]-1-(S)-phenyl-ethyl}-2-[4-(methanesulfonylamino-methyl)-phenyl]-N-methyl-acetamide hydrochloride] gave a pKi [1] of 6.85, a pKi [2] of 6.72 and a pIC50 [3, 9] of 5.03. For the same compound, the pIC50 [4, 10] was less than 5.00 and the pIC50 [5, 11] was less than 5.00.

In the case of `CN(C(=O)Cc1ccc(CNS(C)(=O)=O)cc1)[C@H](CN1CCCC1)c1ccccc1` [Example 12, 2-[4-(methanesulfonylamino-methyl)-phenyl]-N-methyl-N-[1-(S)-phenyl-2-pyrrolidin-1-yl-ethyl]-acetamide], the pKi [1] was 6.33, the pKi [2] was less than 5.52 and the pIC50 [3] was 4.92. It also gave a pIC50 [4] of less than 5.00 and a pIC50 [5] of less than 5.00.

`CCCS(=O)(=O)NCc1ccc(CC(=O)N(C)[C@H](CN2CC[C@H](O)C2)c2ccccc2)cc1.Cl` [Example 16, N-{2-[3-(S)-hydroxy-pyrrolidin-1-yl]-1-(S)-phenyl-ethyl}-N-methyl-2-{4-[(propane-1-sulfonylamino)-methyl]-phenyl}-acetamide hydrochloride] was tested, and the pKi [1] was 6.14, the pKi [2] was 7.00 and the pIC50 [3, 9] was less than 5.00. The pIC50 [4, 10] was less than 5.00, the pIC50 [5, 11] was less than 5.00 and the “activity toward the cytochrome P450 (summary in words)” value (shortened to “activity toward the cytochrome P450”) [6] was “metabolically stable in regard to their activity toward the cytochrome P450”.

`Cc1ccc(S(=O)(=O)NCc2ccc(CC(=O)N(C)[C@H](CN3CC[C@H](O)C3)c3ccccc3)cc2)cc1` [Example 20, N-{2-[3-(S)-hydroxy-pyrrolidin-1-yl]-1-(S)-phenyl-ethyl}-N-methyl-2-{4-[(toluene-4-sulfonylamino)-methyl]-phenyl}-acetamide hydrochloride] was tested, and the pKi [1, 7] was 6.15, the pKi [2] was 7.55 and the pIC50 [3, 9] was 5.31. It also gave a pIC50 [4, 10] of less than 5.00 and a pIC50 [5, 11] of less than 5.00.

For `CN(C(=O)Cc1ccc(CNS(=O)(=O)c2ccc(F)cc2)cc1)[C@H](CN1CC[C@H](O)C1)c1ccccc1` [Example 19, 2-{4-[(4-fluoro-benzenesulfonylamino)-methyl]-phenyl}-N-{2-[3-(S)-hydroxy-pyrrolidin-1-yl]-1-(S)-phenyl-ethyl}-N-methyl-acetamide hydrochloride], the pKi [1] was 5.96, the pKi [2] was 7.19 and the pIC50 [3, 9] was 5.20. It also gave a pIC50 [4, 10] of less than 5.00 and a pIC50 [5, 11] of 5.54.

`CN(C(=O)Cc1ccc(CNS(=O)(=O)Cc2ccccc2)cc1)[C@H](CN1CC[C@H](O)C1)c1ccccc1` [Example 21, N-{2-[3-(S)-hydroxy-pyrrolidin-1-yl]-1-(S)-phenyl-ethyl}-N-methyl-2-[4-(phenylmethanesulfonylamino-methyl)-phenyl]-acetamide hydrochloride] was tested, and the pKi [1, 7] was 6.32, the pKi [2] was 6.77 and the pIC50 [3, 9] was 5.28. It also gave a pIC50 [4, 10] of less than 5.00 and a pIC50 [5, 11] of 5.25.

`CCS(=O)(=O)NCc1ccc(CC(=O)N(C)[C@H](CN2CC[C@H](O)C2)c2ccccc2)cc1.Cl` [Example 14, 2-[4-(ethanesulfonylamino-methyl)-phenyl]-N-{2-[3-(S)-hydroxy-pyrrolidin-1-yl]-1-(S)-phenyl-ethyl}-N-methyl-acetamide hydrochloride] gave a pKi [1] of 6.00, a pKi [2, 8] of 6.29 and a pIC50 [3, 9] of less than 5.00. The pIC50 [4, 10] was less than 5.00, the pIC50 [5, 11] was less than 5.00 and the “activity toward the cytochrome P450” value [6] was “metabolically stable in regard to their activity toward the cytochrome P450”.

In the case of `CN(C(=O)Cc1ccc(CCNS(C)(=O)=O)cc1)[C@H](CN1CC[C@H](O)C1)c1ccccc1.Cl` [Example 26, N-{2-[3-(S)-hydroxy-pyrrolidin-1-yl]-1-(S)-phenyl-ethyl}-2-[4-(2-methanesulfonylamino-ethyl)-phenyl]-N-methyl-acetamide hydrochloride], the pKi [1, 7] was 6.10, the pKi [2] was 6.96 and the IC50 at 15 min ([3]; human, pH 7.4, probe MAMC (1 µM), MAMC to HAMC conversion) was 10 µM. The pIC50 [4, 10] was less than 5.00, the pIC50 [5, 11] was less than 5.00 and the “activity toward the cytochrome P450” value [6] was “metabolically stable in regard to their activity toward the cytochrome P450”.

For `CCCCS(=O)(=O)NCc1ccc(CC(=O)N(C)[C@H](CN2CC[C@H](O)C2)c2ccccc2)cc1` [Example 17, 2-{4-[(butane-1-sulfonylamino)-methyl]-phenyl}-N-{2-[3-(S)-hydroxy-pyrrolidin-1-yl]-1-(S)-phenyl-ethyl}-N-methyl-acetamide hydrochloride], the pKi [1] was 6.00, the pKi [2] was 6.77 and the pIC50 [3, 9] was 5.14. For the same compound, the pIC50 [4, 10] was less than 5.00 and the pIC50 [5, 11] was 5.15.

`CN(C(=O)Cc1ccc(NS(C)(=O)=O)cc1)[C@H](CN1CC[C@H](O)C1)c1ccccc1` [Example 25, N-{2-[3-(S)-hydroxy-pyrrolidin-1-yl]-1-(S)-phenyl-ethyl}-2-(4-methanesulfonylamino-phenyl)-N-methyl-acetamide hydrochloride] was tested, and the pKi [1] was 7.00, the pKi [2] was 6.74 and the pIC50 [3, 9] was 5.31. It also gave a pIC50 [5, 11] of less than 5.00.

`CN(C(=O)Cc1cccc(CNS(C)(=O)=O)c1)[C@H](CN1CCCC1)c1ccccc1` [Example 11, 2-[3-(methanesulfonylamino-methyl)-phenyl]-N-methyl-N-[1-(S)-phenyl-2-pyrrolidin-1-yl-ethyl]-acetamide hydrochloride] showed a pKi [1, 7] of 5.72, a pKi [2, 8] of 5.82 and a pIC50 [3, 9] of 5.85. The pIC50 [5, 11] was less than 5.00.

From patent US6992193B2, “Sulfonylamino phenylacetamide derivatives and methods of their use” (Adolor Corporation, priority 2003, dated 2006)
